Assay results taken from patent US9999222B2, “Herbicidal combination comprising azines” (BASF SE, priority 2014, dated 2018).
Read-outs that look alike come from different tables or passages of the source.

Key:
Test in all cases: Greenhouse test, pre-emergence treatment
CENCY [1] = type: in vivo
ERICA [2] = type: in vivo; conditions: 480 h, read-out: observed % activity 20 DAT
DIGSA [3] = type: in vivo; conditions: Digitaria sanguinalis, 480 h, read-out: observed % activity 20 DAT
DIGSA [4] = type: in vivo, Digitaria sanguinalis; conditions: 4 g ai/ha
CENCY [5] = type: in vivo; conditions: individual
CENCY [6] = type: in vivo, Centaurea cyanus
ERICA [7] = type: in vivo, Erigeron canadensis
IPOHE = type: in vivo, Ipomoea hederacea
Outline: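 Seeds were sown in loamy sand with about 3.0% humus, and compounds in water were sprayed immediately after sowing, alone or as combinations formulated as 10% emulsion concentrates. Plants grew under hoods until rooted, at 10-25 °C or 20-35 °C by species, for 2 to 4 weeks. Damage was scored 0-100 (100 = no emergence or complete destruction), and Colby expected values were E=X+Y−(X·Y/100).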

SETVI = type: in vivo, Setaria viridis
Description: The culture containers used were plastic flowerpots containing loamy sand with approximately 3.0% of humus as the substrate. The seeds of the test plants were sown separately for each species.
For the pre-emergence treatment, the active ingredients, which had been suspended or emulsified in water, were applied directly after sowing by means of finely distributing nozzles. The containers were irrigated gently to promote germination and growth and subsequently covered with transparent plastic hoods until the plants had rooted. This cover caused uniform germination of the test plants, unless this had been impaired by the active ingredients.
Depending on the species, the plants were kept at 10-25° C. or 20-35° C., respectively.
The test period extended over 2 to 4 weeks. During this time, the plants were tended, and their response to the individual treatments was evaluated.
Evaluation was carried out using a scale from 0 to 100. 100 means no emergence of the plants, or complete destruction of at least the aerial moieties, and 0 means no damage, or normal course of growth. A moderate herbicidal activity is given at values of at least 60, a good herbicidal activity is given at values of at least 70, and a very good herbicidal activity is given at values of at least 85.
The respective stated components a and b, and if appropriate, c were formulated as a 10% by weight strength emulsion concentrate and, with addition of the amount of solvent system, introduced into the spray liquor used for applying the active compound.
In the examples, the solvent used was water.
In the examples below, using the method of S. R. Colby (1967) “Calculating synergistic and antagonistic responses of herbicide combinations”, Weeds 15, p. 22ff., the value E, which is expected if the activity of the individual active compounds is only additive, was calculated. E=X+Y−(X·Y/100) where • X=percent activity using active compound a at an application rate A; • Y=percent activity using active compound b at an application rate B; • E=expected activity (in %) by a+b at application rates A+B.
If the value found experimentally is higher than the value E calculated according to Colby, a synergistic effect is present.

[8] = Ipomoea hederacea, 480 h, 4 g ai/ha, read-out: observed % activity 20 DAT

Q: How did the “observed % activity 20 DAT” value (CENCY [1]; 8 g ai/ha) turn out when Nc1nc(Nc2c(F)c(F)cc(F)c2F)nc(C2(F)CCCC2)n1 [compound 9, 6-(1-fluorocyclopentyl)-N4-(2,3,5,6-tetrafluorophenyl)-1,3,5-triazine-2,4-diamine] was run?
A: Its value is 35%.

Q: And the inhibition at 4 g/ha (CENCY [1]; 480 h, 4 g ai/ha, read-out: observed % activity 20 DAT)?
A: The inhibition at 4 g/ha was 40%.

Q: What about the inhibition at 8 g/ha (CENCY [1]; 480 h, 8 g ai/ha, read-out: observed % activity 20 DAT) of the same molecule?
A: The inhibition at 8 g/ha was 20%.

Q: What about the inhibition at 16 g/ha (CENCY [1]; 480 h, 16 g ai/ha, read-out: observed % activity 20 DAT) of the same molecule?
A: Its inhibition at 16 g/ha is 10%.

Q: What about the inhibition at 4 g/ha (ERICA [2]; 4 g ai/ha) of the same molecule?
A: The inhibition at 4 g/ha was 98%.

Q: And the inhibition at 8 g/ha (ERICA [2]; 8 g ai/ha)?
A: Its inhibition at 8 g/ha is 98%.

Q: What about the inhibition at 2 g/ha (DIGSA [3]; 2 g ai/ha) of the same molecule?
A: The inhibition at 2 g/ha was 75%.

Q: What about the inhibition at 4 g/ha (DIGSA [3]; 4 g ai/ha) of the same molecule?
A: Its inhibition at 4 g/ha is 60%.

Q: What about the “observed % activity 20 DAT” value (DIGSA [4]) of the same molecule?
A: The value was 80%.

Q: What about the inhibition at 8 g/ha (CENCY [5]; 480 h, use rate 8 g ai/ha, read-out: observed % activity 20 DAT) of the same molecule?
A: Its inhibition at 8 g/ha is 20%.

Q: And the inhibition at 16 g/ha (CENCY [5]; 480 h, use rate 16 g ai/ha, read-out: observed % activity 20 DAT)?
A: The inhibition at 16 g/ha was 15%.

Q: And the “observed % activity 20 DAT” value (CENCY [5]; use rate 8 g ai/ha)?
A: The value was 35%.

Q: What about the “observed % activity 20 DAT” value (CENCY [6]; 4 g ai/ha) of the same molecule?
A: The value was 40%.

Q: What about the “observed % activity 20 DAT” value (CENCY [6]; 8 g ai/ha) of the same molecule?
A: Its value is 20%.

Q: What about the “observed % activity 20 DAT” value (ERICA [7]; 4 g ai/ha) of the same molecule?
A: The value was 98%.

Q: What about the “observed % activity 20 DAT” value (ERICA [7]; 8 g ai/ha) of the same molecule?
A: Its value is 98%.

Q: What about the “observed % activity 20 DAT” value (IPOHE; 16 g ai/ha) of the same molecule?
A: The value was 15%.

Q: What about the “observed % activity 20 DAT” value (IPOHE; IPOHE, individual, use rate 16 g ai/ha) of the same molecule?
A: The value was 15%.

Q: What about the inhibition at 4 g/ha (IPOHE; [8]) of the same molecule?
A: Its inhibition at 4 g/ha is 0%.

Q: What about the pest or weed control at 4 g/ha (IPOHE; [8]) of the same molecule?
A: The pest or weed control at 4 g/ha was 0%.

Q: What about the inhibition at 16 g/ha (IPOHE; Ipomoea hederacea, 480 h, 16 g ai/ha, read-out: observed % activity 20 DAT) of the same molecule?
A: Its inhibition at 16 g/ha is 10%.

Q: And the inhibition at 16 g/ha (IPOHE; Ipomoea hederacea, 480 h, IPOHE, individual, use rate 16 g ai/ha, read-out: observed % activity 20 DAT)?
A: The inhibition at 16 g/ha was 10%.

Q: And the “observed % activity 20 DAT” value (SETVI; 2 g ai/ha)?
A: Its value is 90%.

Q: What about the “observed % activity 20 DAT” value (SETVI; 4 g ai/ha) of the same molecule?
A: Its value is 90%.

Q: And the inhibition at 2 g/ha (SETVI; Setaria viridis, 480 h, 2 g ai/ha, read-out: observed % activity 20 DAT)?
A: Its inhibition at 2 g/ha is 70%.

Q: What about the inhibition at 4 g/ha (SETVI; Setaria viridis, 480 h, 4 g ai/ha, read-out: observed % activity 20 DAT) of the same molecule?
A: Its inhibition at 4 g/ha is 80%.
